The values below come from ChEMBL document CHEMBL1201862, “PubChem BioAssay data set” (2004).

Activity calls are given as the source filed them. A value given as a limit tells only on which side of the number the result lay.

Assay [1] deals with T1, Fatty acid synthase (Homo sapiens, UniProt P49327). Kind of assay: FAS thioesterase domain inhibitors, dose response, biochemical, endpoint fluorescence intensity, uHTS hits (AID 624327).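 Also: fluorescence from hydrolysis of an O-methyl fluorescein acyl ester substrate by the enzyme.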 Type of assay: functional.
T1 sequence (P49327 whole entry, the tested form may be a part): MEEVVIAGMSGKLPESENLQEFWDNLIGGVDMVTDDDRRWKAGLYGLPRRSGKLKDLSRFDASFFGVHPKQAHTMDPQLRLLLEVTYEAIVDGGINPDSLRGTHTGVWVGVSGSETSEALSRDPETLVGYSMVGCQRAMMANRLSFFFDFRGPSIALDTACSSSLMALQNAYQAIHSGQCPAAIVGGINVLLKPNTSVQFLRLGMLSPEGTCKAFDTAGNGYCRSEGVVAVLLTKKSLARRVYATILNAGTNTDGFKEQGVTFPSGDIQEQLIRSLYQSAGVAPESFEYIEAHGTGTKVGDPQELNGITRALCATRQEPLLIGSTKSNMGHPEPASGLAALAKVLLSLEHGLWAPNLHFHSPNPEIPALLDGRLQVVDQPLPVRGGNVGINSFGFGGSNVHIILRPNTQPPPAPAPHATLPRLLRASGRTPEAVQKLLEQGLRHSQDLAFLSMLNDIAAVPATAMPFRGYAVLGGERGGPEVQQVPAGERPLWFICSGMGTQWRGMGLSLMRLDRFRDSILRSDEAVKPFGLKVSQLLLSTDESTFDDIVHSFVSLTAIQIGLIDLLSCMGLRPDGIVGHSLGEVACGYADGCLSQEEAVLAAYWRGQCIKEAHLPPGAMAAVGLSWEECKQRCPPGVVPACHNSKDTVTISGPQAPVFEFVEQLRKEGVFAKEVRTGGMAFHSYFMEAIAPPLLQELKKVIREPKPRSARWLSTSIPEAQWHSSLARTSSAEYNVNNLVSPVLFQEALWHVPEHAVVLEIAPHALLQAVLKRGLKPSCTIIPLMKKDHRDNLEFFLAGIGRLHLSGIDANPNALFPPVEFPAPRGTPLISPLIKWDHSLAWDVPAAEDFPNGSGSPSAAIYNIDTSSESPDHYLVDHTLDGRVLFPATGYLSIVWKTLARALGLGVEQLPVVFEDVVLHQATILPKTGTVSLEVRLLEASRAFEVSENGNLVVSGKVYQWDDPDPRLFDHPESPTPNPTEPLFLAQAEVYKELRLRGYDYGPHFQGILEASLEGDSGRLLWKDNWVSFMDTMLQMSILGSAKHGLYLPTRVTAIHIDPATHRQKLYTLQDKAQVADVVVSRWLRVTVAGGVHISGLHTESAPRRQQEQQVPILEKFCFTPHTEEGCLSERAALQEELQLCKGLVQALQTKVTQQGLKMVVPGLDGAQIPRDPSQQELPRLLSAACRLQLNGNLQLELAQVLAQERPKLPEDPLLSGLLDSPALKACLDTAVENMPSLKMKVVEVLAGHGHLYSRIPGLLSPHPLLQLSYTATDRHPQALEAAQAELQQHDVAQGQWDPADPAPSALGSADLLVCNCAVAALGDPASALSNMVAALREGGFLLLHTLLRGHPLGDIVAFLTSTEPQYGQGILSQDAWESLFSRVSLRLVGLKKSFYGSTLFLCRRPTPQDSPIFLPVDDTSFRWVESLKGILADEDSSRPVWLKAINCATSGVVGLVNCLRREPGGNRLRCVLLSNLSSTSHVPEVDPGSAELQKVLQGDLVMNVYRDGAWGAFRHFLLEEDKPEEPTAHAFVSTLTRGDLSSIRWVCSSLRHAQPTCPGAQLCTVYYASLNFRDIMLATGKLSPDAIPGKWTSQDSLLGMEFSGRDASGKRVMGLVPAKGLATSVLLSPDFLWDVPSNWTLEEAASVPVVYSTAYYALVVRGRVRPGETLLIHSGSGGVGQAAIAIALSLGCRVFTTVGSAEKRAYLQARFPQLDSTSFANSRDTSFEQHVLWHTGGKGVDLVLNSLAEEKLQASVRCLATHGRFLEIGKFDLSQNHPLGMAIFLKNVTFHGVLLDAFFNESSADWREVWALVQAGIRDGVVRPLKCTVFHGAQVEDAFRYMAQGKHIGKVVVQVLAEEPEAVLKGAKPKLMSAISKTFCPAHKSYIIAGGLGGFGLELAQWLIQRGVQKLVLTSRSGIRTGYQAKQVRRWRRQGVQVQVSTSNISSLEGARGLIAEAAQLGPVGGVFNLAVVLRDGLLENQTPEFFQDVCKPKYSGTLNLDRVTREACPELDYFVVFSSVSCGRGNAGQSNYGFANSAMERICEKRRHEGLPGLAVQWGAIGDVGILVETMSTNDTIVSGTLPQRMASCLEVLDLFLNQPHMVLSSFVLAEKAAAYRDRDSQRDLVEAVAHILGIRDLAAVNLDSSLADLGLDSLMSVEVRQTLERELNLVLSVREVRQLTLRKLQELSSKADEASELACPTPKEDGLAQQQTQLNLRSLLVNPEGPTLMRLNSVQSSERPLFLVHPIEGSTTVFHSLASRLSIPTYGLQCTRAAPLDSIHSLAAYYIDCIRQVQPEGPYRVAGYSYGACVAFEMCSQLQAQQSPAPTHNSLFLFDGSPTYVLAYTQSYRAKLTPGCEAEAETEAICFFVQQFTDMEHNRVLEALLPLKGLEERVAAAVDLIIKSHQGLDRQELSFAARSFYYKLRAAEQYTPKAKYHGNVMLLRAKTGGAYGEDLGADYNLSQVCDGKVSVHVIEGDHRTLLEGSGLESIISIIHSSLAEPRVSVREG
Assay [2] has as its target T1, Fatty acid synthase. Kind of assay: FAS thioesterase domain inhibitors, dose response, biochemical, kinetic fluorescence intensity (AID 624326).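 Also: rate of fluorescence rise from hydrolysis of a fluorogenic O-methyl fluorescein ester substrate.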 Type of assay: functional.
For another assay, the target named is Genome polyprotein (dengue virus type 2, UniProt P29990). Briefly: Dengue-2 NS5 methyltransferase inhibitors, primary screen, biochemical, confirmation dose response (AID 588689). The class given is functional.
Genome polyprotein, sequence (P29990 2492-3391 limits assumed): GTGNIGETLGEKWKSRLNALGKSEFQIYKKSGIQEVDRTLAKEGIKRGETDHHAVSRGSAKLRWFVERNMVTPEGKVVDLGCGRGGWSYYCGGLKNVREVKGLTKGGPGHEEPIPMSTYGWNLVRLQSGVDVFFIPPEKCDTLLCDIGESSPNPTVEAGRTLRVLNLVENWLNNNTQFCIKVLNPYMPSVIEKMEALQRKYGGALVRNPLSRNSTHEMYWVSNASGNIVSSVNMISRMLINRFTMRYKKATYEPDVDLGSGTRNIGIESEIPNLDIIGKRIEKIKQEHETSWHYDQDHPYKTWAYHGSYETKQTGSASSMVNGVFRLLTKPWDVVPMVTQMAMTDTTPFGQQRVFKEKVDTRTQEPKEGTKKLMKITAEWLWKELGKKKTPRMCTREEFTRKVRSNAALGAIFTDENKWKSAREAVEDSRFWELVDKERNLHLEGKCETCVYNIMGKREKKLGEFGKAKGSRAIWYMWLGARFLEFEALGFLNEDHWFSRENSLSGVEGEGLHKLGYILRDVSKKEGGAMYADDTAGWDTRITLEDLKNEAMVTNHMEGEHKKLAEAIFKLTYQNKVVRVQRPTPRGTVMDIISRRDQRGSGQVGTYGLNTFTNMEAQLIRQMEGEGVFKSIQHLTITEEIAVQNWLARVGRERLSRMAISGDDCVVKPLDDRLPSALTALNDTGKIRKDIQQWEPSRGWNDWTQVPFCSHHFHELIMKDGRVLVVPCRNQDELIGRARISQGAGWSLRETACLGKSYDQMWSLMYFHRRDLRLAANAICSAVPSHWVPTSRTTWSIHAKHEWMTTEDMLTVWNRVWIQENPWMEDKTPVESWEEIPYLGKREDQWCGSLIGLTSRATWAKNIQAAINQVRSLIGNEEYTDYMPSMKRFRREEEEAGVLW
The target of assay [3] is T2, Calpain-2 catalytic subunit (Sus scrofa, UniProt P43367).
T2 sequence (P43367 whole entry): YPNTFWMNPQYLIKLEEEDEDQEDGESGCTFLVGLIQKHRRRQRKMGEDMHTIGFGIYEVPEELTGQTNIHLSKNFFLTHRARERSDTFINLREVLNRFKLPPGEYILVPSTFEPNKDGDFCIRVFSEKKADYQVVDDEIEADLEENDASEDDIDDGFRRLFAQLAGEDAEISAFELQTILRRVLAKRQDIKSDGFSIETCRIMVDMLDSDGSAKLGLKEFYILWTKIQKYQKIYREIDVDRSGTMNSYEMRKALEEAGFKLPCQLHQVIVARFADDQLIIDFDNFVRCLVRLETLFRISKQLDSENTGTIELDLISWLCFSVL
Kind of assay: pig calpain II inhibitor potency, dose response, biochemical, fluorogenic peptide substrate (AID 1420). The class given is functional.

The target in assay [4] is T3, Polyadenylate-binding protein 1 (Homo sapiens, UniProt P11940). Kind of assay: PABP1 MLLE–PAM2 binding inhibitor potency, dose response, biochemical, fluorescence polarization, FITC-PAM2 peptide (AID 602259). The class given is functional. The note with it: read-out: IC50_Mean. (In general: Polarisation of emitted light reports the rotation of a fluorescent probe.)
T3 sequence (P11940 whole entry): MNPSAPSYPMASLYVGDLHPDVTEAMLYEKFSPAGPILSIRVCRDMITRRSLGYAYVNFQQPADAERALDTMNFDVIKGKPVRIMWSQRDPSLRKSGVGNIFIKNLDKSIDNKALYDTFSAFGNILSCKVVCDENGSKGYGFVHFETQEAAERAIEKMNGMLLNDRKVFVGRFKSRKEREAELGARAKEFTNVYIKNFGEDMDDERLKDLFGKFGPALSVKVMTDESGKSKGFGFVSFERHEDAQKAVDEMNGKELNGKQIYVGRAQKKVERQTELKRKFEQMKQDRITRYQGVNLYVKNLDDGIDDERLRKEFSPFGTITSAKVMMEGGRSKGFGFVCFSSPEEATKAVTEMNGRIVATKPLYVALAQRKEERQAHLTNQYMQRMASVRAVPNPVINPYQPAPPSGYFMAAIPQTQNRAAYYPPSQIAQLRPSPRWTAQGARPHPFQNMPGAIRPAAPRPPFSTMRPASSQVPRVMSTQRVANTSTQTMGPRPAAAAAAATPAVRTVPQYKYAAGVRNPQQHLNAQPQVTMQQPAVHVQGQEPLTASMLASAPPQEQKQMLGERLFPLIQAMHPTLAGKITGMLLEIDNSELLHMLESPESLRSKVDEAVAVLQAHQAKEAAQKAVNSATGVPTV

The target of assay [5] is T3, Polyadenylate-binding protein 1. Kind of assay: PABP1 MLLE–PAM2 interaction inhibitors, dose response, miRNA deadenylation inhibitor project, biochemical, fluorescence polarization, Cy5-PAM2 peptide, secondary (AID 602260). The class given is functional. Particulars: read-out: IC50_Mean.
Another assay concerns Vero. Kind of assay: cells. The class given is functional. Particulars: Chlorocebus sabaeus.
Another assay has as its target T4, Protein skinhead-1 (Caenorhabditis elegans, UniProt P34707).
T4 sequence (P34707 whole entry): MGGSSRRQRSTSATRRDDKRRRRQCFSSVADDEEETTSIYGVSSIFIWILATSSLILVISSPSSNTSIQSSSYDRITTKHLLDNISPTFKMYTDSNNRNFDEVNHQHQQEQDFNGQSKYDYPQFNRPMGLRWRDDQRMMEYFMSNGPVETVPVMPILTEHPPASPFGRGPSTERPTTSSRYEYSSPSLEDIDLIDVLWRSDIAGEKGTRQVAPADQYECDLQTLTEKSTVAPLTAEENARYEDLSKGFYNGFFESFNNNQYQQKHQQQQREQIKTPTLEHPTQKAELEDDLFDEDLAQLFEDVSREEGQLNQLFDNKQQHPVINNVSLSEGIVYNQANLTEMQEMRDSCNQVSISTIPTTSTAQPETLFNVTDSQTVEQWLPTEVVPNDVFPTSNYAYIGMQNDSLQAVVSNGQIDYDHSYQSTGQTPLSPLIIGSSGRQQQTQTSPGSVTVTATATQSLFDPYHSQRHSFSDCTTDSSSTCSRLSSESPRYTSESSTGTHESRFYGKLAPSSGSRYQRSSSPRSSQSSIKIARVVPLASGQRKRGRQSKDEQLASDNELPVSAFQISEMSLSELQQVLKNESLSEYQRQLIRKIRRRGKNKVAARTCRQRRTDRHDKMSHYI
The class given is functional.

Assay [6] deals with T5, Ubiquitin-conjugating enzyme E2 N (Homo sapiens, UniProt P61088).
T5 sequence (P61088 whole entry): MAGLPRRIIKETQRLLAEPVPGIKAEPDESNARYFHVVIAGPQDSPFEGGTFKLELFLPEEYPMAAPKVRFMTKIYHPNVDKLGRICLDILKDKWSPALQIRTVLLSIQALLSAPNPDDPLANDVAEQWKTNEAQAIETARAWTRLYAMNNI
Type of assay: functional.

Assay [7] can be described thus: growth suppression of beta-catenin-knockout colon cells, dose response, cell-based, HCT116, human colon tumor (AID 1045).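 Also: HCT116 colon tumor cells with beta catenin knocked out; cells exposed to compound for 60 hours.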 Type of assay: functional.
The nature of assay [8]: growth suppression of PTEN-null colon cells, dose response, cell-based, HCT116 PTEN knockout (AID 1047).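 Also: HCT116 colon tumor cells with PTEN knocked out; cells exposed to compound for 60 hours before readout; potency for loss of cell viability measured by luminescence.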 The class given is functional.
In the next assay the test system is INS1. Briefly: beta cell apoptosis inhibitors, cytokine rescue, dose response, luminescence, retest (AID 449756).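 Also: cell death triggered by IL-1 beta plus TNF-alpha plus IFN-gamma mixture; protective hits raise ATP signal compared with cytokine alone wells.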 Particulars: Rattus norvegicus. Type of assay: functional, cell-based.
The nature of assay [9]: Luminescence Cell-Based Dose Retest to Confirm Inhibitors of Cancer Stem Cells. [Related pubchem assays (depositor defined):AID2717, AID2721]. Type of assay: functional, Homo sapiens. The note with it: Homo sapiens.
Assay [10] concerns the target Luciferin 4-monooxygenase (Photinus pyralis, UniProt P08659). Kind of assay: firefly luciferase enzyme inhibitors, dose response, biochemical, luminescence (AID 1891).
Assay [11] addresses T6, Histone-lysine N-methyltransferase NSD2 (Homo sapiens, UniProt O96028).
T6 sequence (O96028 whole entry): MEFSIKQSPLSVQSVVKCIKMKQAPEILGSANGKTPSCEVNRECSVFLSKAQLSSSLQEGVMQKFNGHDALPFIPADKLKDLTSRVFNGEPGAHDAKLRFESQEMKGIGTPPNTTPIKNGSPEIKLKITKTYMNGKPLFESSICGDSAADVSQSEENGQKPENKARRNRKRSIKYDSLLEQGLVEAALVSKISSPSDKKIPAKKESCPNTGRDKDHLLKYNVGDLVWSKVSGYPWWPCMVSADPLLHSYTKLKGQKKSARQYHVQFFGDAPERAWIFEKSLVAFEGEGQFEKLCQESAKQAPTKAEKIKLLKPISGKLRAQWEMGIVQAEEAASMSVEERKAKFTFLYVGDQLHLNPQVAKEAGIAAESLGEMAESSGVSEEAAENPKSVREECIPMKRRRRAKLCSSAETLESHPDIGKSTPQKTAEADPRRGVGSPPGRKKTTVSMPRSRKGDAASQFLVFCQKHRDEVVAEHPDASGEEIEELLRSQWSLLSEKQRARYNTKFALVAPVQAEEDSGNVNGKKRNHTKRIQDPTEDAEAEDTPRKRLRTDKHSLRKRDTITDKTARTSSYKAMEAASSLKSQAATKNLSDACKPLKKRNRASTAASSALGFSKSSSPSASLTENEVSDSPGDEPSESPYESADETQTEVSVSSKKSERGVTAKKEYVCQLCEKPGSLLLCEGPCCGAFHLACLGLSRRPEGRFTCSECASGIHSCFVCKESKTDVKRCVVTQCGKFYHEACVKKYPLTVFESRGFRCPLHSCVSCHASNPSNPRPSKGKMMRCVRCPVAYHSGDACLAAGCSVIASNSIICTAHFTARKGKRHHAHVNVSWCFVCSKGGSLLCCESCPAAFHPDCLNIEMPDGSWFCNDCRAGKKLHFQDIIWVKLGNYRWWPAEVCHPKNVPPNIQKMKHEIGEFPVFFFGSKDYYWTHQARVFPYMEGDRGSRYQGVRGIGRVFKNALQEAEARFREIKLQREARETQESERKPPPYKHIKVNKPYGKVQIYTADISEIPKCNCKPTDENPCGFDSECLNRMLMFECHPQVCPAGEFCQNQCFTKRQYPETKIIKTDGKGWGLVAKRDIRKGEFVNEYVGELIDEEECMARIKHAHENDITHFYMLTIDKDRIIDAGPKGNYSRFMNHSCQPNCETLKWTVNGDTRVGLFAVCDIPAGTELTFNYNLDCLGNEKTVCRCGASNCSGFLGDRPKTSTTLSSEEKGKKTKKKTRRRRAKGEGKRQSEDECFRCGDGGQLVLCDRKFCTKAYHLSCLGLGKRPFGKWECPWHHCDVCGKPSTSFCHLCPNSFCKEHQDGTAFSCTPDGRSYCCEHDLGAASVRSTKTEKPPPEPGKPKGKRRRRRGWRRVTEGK
The class given is biochemical.

A short description of assay [12]: HEp-2 cell cytotoxicity, dose response, cytotoxicity control for RSV inhibitor project, HTS (AID 2410). The class given is functional. Particulars: human respiratory syncytial virus.

Luciferin 4-monooxygenase, sequence (P08659 whole entry): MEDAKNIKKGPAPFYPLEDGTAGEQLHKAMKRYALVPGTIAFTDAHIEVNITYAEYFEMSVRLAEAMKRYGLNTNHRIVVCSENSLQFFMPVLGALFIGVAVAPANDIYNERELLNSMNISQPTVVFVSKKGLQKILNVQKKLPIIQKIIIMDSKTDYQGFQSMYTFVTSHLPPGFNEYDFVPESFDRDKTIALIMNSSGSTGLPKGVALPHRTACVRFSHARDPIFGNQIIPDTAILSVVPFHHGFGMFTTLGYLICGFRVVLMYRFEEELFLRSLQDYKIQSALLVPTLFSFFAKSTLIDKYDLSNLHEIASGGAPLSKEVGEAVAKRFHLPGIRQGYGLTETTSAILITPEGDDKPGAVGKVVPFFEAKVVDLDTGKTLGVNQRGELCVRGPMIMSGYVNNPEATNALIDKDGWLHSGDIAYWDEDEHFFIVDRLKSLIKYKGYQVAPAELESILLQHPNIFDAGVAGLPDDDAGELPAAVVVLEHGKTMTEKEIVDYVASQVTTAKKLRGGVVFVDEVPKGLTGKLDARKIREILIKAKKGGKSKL

As to `COCCOc1ccc(C(F)(F)F)cc1NC(=O)COC(=O)c1cc([N+](=O)[O-])ccc1N1CCOCC1`, the values for the IC50 at Fatty acid synthase [1] and at Fatty acid synthase [2] were 5.58 µM (active) and 6.42 µM (active), respectively.

On to `COc1ccc(/C=C2/SC(=S)N(NS(=O)(=O)c3ccc(C)cc3)C2=O)cc1`, for which the IC50 on Genome polyprotein is 56.9 µM (active).

As to `O=C(c1ccc(NC(=O)C(c2ccccc2)c2ccccc2)cc1)c1ccc(C(=O)O)c(C(=O)O)c1`, the IC50 at Genome polyprotein was 57.6 µM (active).

With `O=C(O)c1ccc(CSc2nc[nH]n2)cc1`, in assay [3], the IC50 is < 0.4 µM (not active).

For the compound `CCC(c1nnnn1Cc1ccc(F)cc1)N(CCCO)Cc1cc2cc3c(cc2nc1O)OCO3` (stereo unspecified), the IC50 in assay [4] and in assay [5] was > 66 µM (inactive) throughout.

On to `O=C(COC(=O)c1cc([N+](=O)[O-])ccc1NCc1ccccc1)NC1CCCCC1`, for which the figures for the IC50 on Fatty acid synthase [1] and at Fatty acid synthase [2] were 1.31 µM (active) and 1.64 µM (active), respectively. Besides, the CC50 with Vero is > 25 µM (active).

Regarding `c1ccc(SCc2cc(-c3ccccc3)no2)cc1`, at Protein skinhead-1, the IC50 was 17.6 µM (active).

Regarding `Cc1cc2cc(CNC(=O)C3CC3)ccc2n1C`, the IC50 at Protein skinhead-1 is > 100 µM (inactive).

Turning to `Cc1cc(Br)cn2c(Cc3ccsc3)c(-c3ccccc3)nc12`, the IC50 on Protein skinhead-1 was > 100 µM (inactive).

`CCCOc1ccc(NC(=O)CC2C(=O)N(C)C(=S)N2Cc2cccs2)cc1` (stereo unspecified): the IC50 was 9.62 µM (active) on Fatty acid synthase [1] and 7.42 µM (active) at Fatty acid synthase [2].

Consider `CC(=O)c1ccc(Sc2ccc(C(C)=O)cc2)cc1`, for which the IC50 in [6] is > 20 µM (inactive).

In the case of `CN1CCN(c2ccc(S(=O)(=O)N3CCCCC3)cc2NC(=O)c2ccc3ccccc3c2)CC1`, the EC50 in assay [7] is 17.8 µM (active); in [8], 16 µM (active). In addition, in assay [6], the IC50 is > 20 µM (inactive).

On to `Cc1cc(C)c(NC(=S)NC(=O)c2ccc(-c3ccccc3)cc2)c(C)c1`, for which the IC50 in assay [3] is given as 12.4 µM (not active).

As to `CCOc1ccc(NS(=O)(=O)c2ccc(NC(=S)NC(=O)CC(C)C)cc2)cc1`, the IC50 in assay [3] is reported as 6.89 µM (not active).

Regarding `CCN1CCN(Cc2ccc(NC(=O)c3cc(NC(=O)c4cnn(-c5ccccc5)c4N)cc(OC)c3)cc2C(F)(F)F)CC1`, the AC50 was 19.6 µM (active) in the assay on INS1 and 11.7 µM (active) in assay [9]. Moreover, the IC50 in assay [6] was > 20 µM (inactive).

`CCOc1ccc(OCC)c(S(=O)(=O)NCCOC23CC4CC(CC(C4)C2)C3)c1`: in the assay on INS1, the half-maximal activity concentration (AC50) is 8.76 µM (active). For the same compound, in assay [3], the IC50 is on record as 8.71 µM (not active).

Regarding `COc1cc2sc(-c3ccccc3OC)c(-c3ccc(OCCN4CCCCC4)cc3)c2cc1OC`, the concentration at half-maximal activity (AC50) with INS1 was 7.69 µM (active); in assay [9], 6.45 µM (active). The IC50 in assay [6] was > 20 µM (inactive).

`O=C(Nc1cccc(Cl)c1)c1cc(-c2ccco2)on1`: the IC50 at Protein skinhead-1 was > 100 µM (inactive).

In the case of `O=C(N=Nc1c(O)[nH]c2ccc(Cl)cc12)c1cc(-c2cccs2)nc2ccccc12`, the IC50 in assay [3] is 10.3 µM (not active).

As to `Cc1cc2cc(CN=C(S)NCc3ccccc3)ccc2n1C`, the IC50 on Protein skinhead-1 is > 100 µM (inactive).

For `Cc1noc(C)c1-c1csc(N2CCC(C(N)=O)CC2)n1`, the IC50 in assay [4] and in [5] was > 66 µM (inactive) in each case.

For the compound `CCOC(=O)CNC(=O)CSc1nc(-c2cccc(C)c2)ns1`, the IC50 in assay [4] and in assay [5] was > 66 µM (inactive) each time.

`CC(=O)NNc1nc(-c2ccccc2)cs1`: the values for the IC50 at Fatty acid synthase [1] and on Fatty acid synthase [2] were 18.6 µM (active) and 18.2 µM (active), respectively.

Turning to `O=c1[nH]c2ccc(NC(=S)Nc3ccccc3Cl)cc2[nH]1`, the IC50 in [4] and in assay [5] was > 66 µM (inactive) each time. Also, the concentration giving a half-maximal response (EC50) in assay [10] is > 112 µM (not active).

Take `O=C1Nn2c(nc3c(c2=O)CCCC3)/C1=N/Nc1cccc(C(F)(F)F)c1`: the IC50 on Genome polyprotein was 28.7 µM (active). Moreover, the AC50 in [11] was > 20 µM (inactive). The 50% cytotoxic concentration (CC50) in assay [12] is 25.1 µM (active).

With `c1ccc(CSc2ncnc3sccc23)cc1`, the IC50 on Protein skinhead-1 is 92.7 µM (inactive).

Regarding `Cc1ccc(C(C(=O)NCC2CCCO2)N(C(=O)c2snc(C(N)=O)c2N)c2ccc(F)cc2)o1` (stereo unspecified), the IC50 in assay [6] was > 20 µM (inactive).

As usually defined, the CC50 is the concentration giving 50% cytotoxicity. A word on the EC50: it is the concentration giving half of the maximal effect. A word on the AC50: it is the concentration giving half of the maximal activity seen.
